Data reported in patent US8269017B2, “Compounds for the treatment of proliferative disorders” (Synta Pharmaceuticals Corporation, priority 2005, dated 2012).
“Also recorded” adds a separate entry of the source. Where two headings read alike, the source gives them in different places.

What was measured:
[1] = tested on: HL-60 (T-cell leukemia); experiment: In vitro cytotoxicity, MTS assay, HL-60; assay type: cell-based, human; conditions: Homo sapiens
Protocol: (§1) The in vitro cytotoxicity of the compounds of the invention was determined in the following human cell lines: HL-60 (T-cell leukemia), MDA-435 and MCF-7 (human breast carcinoma), NCI-H460 and H29 (colon carcinoma), DU145 (prostate carcinoma), and MES-SA and MES-SA/DX5 (uterine sarcoma). MES-SA is a model of uterine sarcoma, and the cell are sensitive to a number of chemotherapeutic agents including doxorubicin, dactinomycin, mitomycin C, taxol and bleomycin, but resistant to vinblastine and cisplatin. MES-SA/Dx5 was established in the presence of increasing concentrations of doxorubicin. […] All cells were purchased from ATCC.
(§2) The cell lines were maintained in RPMI1640 (GIBCO) supplemented with 10% FCS, 100 units/mL penicillin, 100 ug/ml streptomycin, and 2 mM L-glutamine. Cells were split every third day and diluted to a concentration of 2×10^5 cells/mL one day before the experiment was performed. All experiments were performed on exponentially growing cell cultures. Cell densities were 2.5×10^4 cells/mL in all experiments.
(§3) Compounds of the invention were prepared by dissolving the compound at a concentration of 10 mM in 100% DMSO. Final concentrations 10, 1, 0.1, 0.01 and 0.001 μM were obtained by diluting the stock solution directly into the tissue culture medium.

[2] = tested on: MES-SA/DX5 (uterine sarcoma, MDR-1); experiment: cells; assay type: cell-based; conditions: Homo sapiens, MDR1, 72 h, MES/DX5 (MDR-1), MTS assay
Protocol: as §1, §2, §3

[3] = tested on: MES-SA (uterine sarcoma); experiment: In vitro cytotoxicity, MTS assay, MES-SA; assay type: cell-based, human; conditions: Homo sapiens, MES-SA (Uterine Carcinoma)
Protocol: as §1, §2, §3

[4] = Body weight change in EMT6 tumor growth study; assay type: in vivo, nude mouse
Protocol: Seven to eight week old, female Crl:CD-1-nuBR (nude) mice were obtained from Charles River Laboratories (Wilmington, Mass., USA). Animals were housed 4-5/cage in micro-isolators, with a 12 hr/12 hr light/dark cycle, acclimated for at least 1 week prior to use and fed normal laboratory chow ad libitum. Studies were conducted on animals between 8 and 10 weeks of age at implantation. To implant EMT6 tumor cells into nude mice, the cells were trypsinized as above, washed in PBS and resusupended at a concentration of 10×10^6 cells/mL in PBS. Using a 27 gauge needle and 1 cc syringe, 0.1 mL of the cell suspension was injected subcutaneously into the flank of each nude mouse. Tumor-bearing animals were given single intravenous (i.v.) bolus injections of either vehicle or Compound 174 at 10 mL per kg body weight. To measure the effect of the drug treatment on tumor growth rates, tumor volumes were measured 3 days after dosing (FIG. 22).

[5] = tested on: human tumor cell line MDA-MB-435S; experiment: Nude mouse xenograft, MDA-MB-435S (Example 10); assay type: in vivo; conditions: Compound 169 at 2 mg/kg, Compound 174 at 4.55 mg/kg body weight, i.v., 1 time/week, 3 doses
Protocol: (§4) Seven to eight week old, female Crl:CD-1-nuBR (nude) mice were obtained from Charles River Laboratories (Wilmington, Mass., USA). Animals were housed 4-5/cage in micro-isolators, with a 12 hr/12 hr light/dark cycle, acclimated for at least 1 week prior to use and fed normal laboratory chow ad libitum. Studies were conducted on animals between 8 and 10 weeks of age at implantation. To implant MDA-MB-4355 tumor cells into nude mice, the cells were trypsinized as above, washed in PBS and resusupended at a concentration of 50×10(6) cells/ml in PBS. Using a 27 gauge needle and 1 cc syringe, 0.1 ml of the cell suspension was injected into the corpus adiposum of nude mice. The corpus adiposum is a fat body located in the ventral abdominal vicera in the right quadrant of the abdomen at the juncture of the os coxae (pelvic bone) and the os femoris (femur).
Tumors were then permitted to develop in vivo until the majority reached an average of 100-200 mm^3 in tumor volume, which typically required 2-3 weeks following implantation. […] Tumor volumes (V) were calculated by caliper measurement of the width (W), length (L) and thickness (T) of tumors using the following formula: V=0.5236×(L×W×T). Animals were randomized into treatment groups so that the median tumor volumes of each group were similar at the start of dosing. % T/C values, as a measure of efficacy, were determined as follows: • (i) If ΔT>0: % T/C=[…] • (ii) If ΔT<0: % T/C=(ΔT/T0)×100 • (iii) ΔT=Change in median tumor volume between start of dosing and the end of study. • (iv) ΔC=Change in median tumor volume between start of dosing and the end of study. • (v) T0=Median tumor volume at start of dosing.
(§5) Compounds were formulated in either D5W (Compounds 169 and 174) or DRD (Compound 178). For formulations in D5W, solutions of test articles were prepared by dissolving the appropriate amounts of each compound in 5% dextrose in water (Abbott Laboratories, North Chicago, Ill., USA) by sonication in an ultrasonic water bath. For formulations in DRD, stock solutions of test articles were prepared by dissolving the appropriate amounts of each compound in dimethyl sulfoxide (DMSO) by sonication in an ultrasonic water bath. Stock solutions were prepared weekly, stored at −20° C. and diluted fresh each day for dosing. A solution of 20% Cremophore RH40 (polyoxyl 40 hydrogenated castor oil; BASF Corp., Aktiengesellschaft, Ludwigshafen, Germany) in 5% dextrose in water (Abbott Laboratories, North Chicago, Ill., USA) was also prepared by first heating 100% Cremophore RH40 at 50-60° C. until liquefied and clear, diluting 1:5 with 100% D5W, reheating again until clear and then mixing well. This solution was stored at room temperature for up to 3 months prior to use. […]

[6] = Body weight change in MDA-MB-435S xenograft study (Example 10); assay type: in vivo, nude mouse; conditions: Compound 169 at 2 and 1 mg/kg, Compound 174 at 4.55 and 2.28 mg/kg body weight, i.v., 1 time per week, 3 doses; Hydrochloride
Protocol: as §4
as §5, with “use. To prepare DRD formulations for daily dosing, DMSO stock solutions were diluted 1:10 with 20% Cremophore RH40.” for “use.”

[7] = tested on: Africa green monkey kidney fibroblasts (CV1 cells); experiment: Microtubule depolymerization in CV-1 cells (anti-tubulin immunofluorescence); assay type: cell-based; conditions: 24 hr
Protocol: (§6) Depolymerizing microtubules not only kills dividing tumor cells but also induces disruption of newly generated blood vessels in tumor. The potency of Compound 249 in depolymerizing microtubules was examined in Africa green monkey kidney fibroblasts (CV1 cells) and primary human umbilical vein endothelium cells (HUVEC cells). The cells were treated with drugs (1, 10, 100, and 1000 nM for CV-1 and 1, 5, 10, 50, 100 nM for HUVEC) for 24 hr and fixed with 3% paraformaldehyde followed by cold methanol treatment to preserve both microtubule structures and depolymerized tubulin in the cytoplasm. The cells were stained with anti-tubulin antibody and subsequently fluorescent conjugated secondary antibody to visualize microtubule networks or cytoplasmic tubulin with fluorescent microscopy. As shown in FIG. 20 and FIG. 21, Compound 249 completely depolymerizes MT in a considerable proportion of CV1 cells at 10 nM and HUVEC cells at 1 nM (about 10% for both cell lines; data not shown). At 100 nM for CV1 and 5 nM for HUVEC cells, microtubules were completely depolymerized in nearly 100% cells. Tubulin staining in these cells was shown as cytoplasmic location and no microtubule structures were found in those cells. […] Compound 249 is a potent microtubule depolymerizing drug and HUVEC cells are extremely sensitive to Compound 249's anti-microtubule effect.

[8] = tested on: primary human umbilical vein endothelium cells (HUVEC cells); experiment: Microtubule depolymerization in HUVEC cells (anti-tubulin immunofluorescence); assay type: cell-based; conditions: 24 hr
Protocol: as §6

[9] = tested on: human tumor cell line MDA-MB-435S; experiment: Nude mouse xenograft, MDA-MB-435S (Example 9); assay type: in vivo; conditions: i.v., 3 times per week
Protocol: FBS was obtained from ATCC and all other reagents were obtained from Invitrogen Corp. (Carlsbad, Calif., USA). […] To inactivate the trypsin, 5 mL of growth media was added and then the contents of the flask were centrifuged to pellet the cells. The supernatant was aspirated and the cell pellet was resuspended in 10 mL of growth media and the cell number determined using a hemocytometer.
Animals were housed 4-5/cage in micro-isolators, with a 12 hr/12 hr light/dark cycle, acclimated for at least 1 week prior to use and fed normal laboratory chow ad libitum.

SMILES | IC50 ([1]; HL-60, HL60 (Leukemia), 72 hours, read-out: IC50) [nM] | IC50 [2] [nM] | IC50 ([3]; 72 hours, read-out: IC50) [nM] | largest average percent change in body weight ([4]; 4.55 mg/kg body weight single i.v., one day after dosing) [%] | body weight lost by any individual animal ([4]; any point over the course of the study) [%] | % T/C [5] [%] | overt toxicity (effect on body weights) [6] | IC50 ([1]; HL-60, 72 h, HL60 (Leukemia)) [nM] | proportion of cells with completely depolymerized microtubules ([7]; 10 nM) | proportion of cells with completely depolymerized microtubules ([7]; 100 nM) [%] | microtubule structure ([8]; 1 nM) | proportion of cells with completely depolymerized microtubules ([8]; 1 nM) | proportion of cells with completely depolymerized microtubules ([8]; 5 nM) [%] | IC50 ([3]; MES-SA, 72 h) [nM] | tumor regression ([9]; paclitaxel at 7.5 mg/kg body weight, 10 doses) | tumor growth compared to vehicle ([9]; paclitaxel at 7.5 mg/kg)
COc1ccc(-c2cnoc2-c2cc(OC)c(OC)c(OC)c2)cc1NC(=O)C(N)Cc1ccccc1.Cl (centres unmarked) [Compound 174, 2-amino-N-(2-methoxy-5-(5-(3,4,5-trimethoxyphenyl)isoxazol-4-yl)phenyl)-3-phenylpropanamide Hydrochloride] | 2 | 0.1 | 0.1 | −7.3 | ≤ 11 | 25 | not overtly toxic; also recorded: not associated with overt toxicity | – | – | – | – | – | – | – | – | –
COc1ccc(-c2cnoc2-c2cc(OC)c(OC)c(OC)c2)cc1N [Compound 249, 2-methoxy-5-(5-(3,4,5-trimethoxyphenyl)isoxazol-4-yl)aniline] | – | 1 | – | – | – | – | – | 1 | about 10% | ~100 | Fragmented microtubules were found | about 10% | ~100 | 1 | – | –
CC(=O)O[C@H]1C(=O)[C@@]2(C)[C@H]([C@H](OC(=O)c3ccccc3)[C@]3(O)C[C@H](OC(=O)[C@H](O)[C@@H](NC(=O)c4ccccc4)c4ccccc4)C(C)=C1C3(C)C)[C@]1(OC(C)=O)CO[C@@H]1C[C@@H]2O [paclitaxel, Paclitaxel] | – | – | – | – | – | – | – | – | – | – | – | – | – | – | did not | decreased tumor growth
